Laboratory results: patent publication US3941795A, “α-ARYL-4-SUBSTITUTED PIPERIDINOALKANOL DERIVATIVES” (Richardson-Merrell Inc., priority 1974, dated 1976)

Test system: wheals induced by intradermal injections on 1γ of histamine
Test: reduction by 50% of wheals induced by intradermal injections of histamine into guinea pigs (antihistamine)
Assay type: in vivo
Conditions: Cavia porcellus, po, 1 h, orally administered one hour prior to the histamine injection, 1γ of histamine intradermal, read-out: ED50 (amount required to reduce by 50% wheals induced by intradermal injections of histamine)
Text: To illustrate the utility of the compounds of this invention the following tabulation indicates the amount of certain representative compounds of this invention required to reduce by 50% wheals induced by intradermal injections on 1γ of histamine into guinea pigs. Each compound was orally administered one hour prior to the histamine injection.

## CC(C)(C)c1ccc(C(O)CCCN2CCC(C(O)(c3ccccc3)C3CCCCC3)CC2)cc1.Cl (stereo not drawn) [4-(α-cyclohexyl-α-hydroxybenzyl)-α-(p-tert-butylphenyl)-1-piperidinebutanol hydrochloride]
  ED50: 12 mg/kg

## COc1ccccc1C(=C1CCN(CCCC(O)c2ccc(C(C)(C)C)cc2)CC1)c1ccccc1 (stereo not drawn) [4-[4-[α-(o-Anisyl)benzylidene]-α-(p-tert-butylphenyl)-1-piperidinebutanol]]
  ED50: 4.4 mg/kg
